# Test system: 496974-208-R-J2-PDC complex spheroids, growth % test/control
# Assay: Anticancer human tumor 496974-208-R-J2-PDC patient-derived pancreatic carcinoma cell line growth inhibition [CLK]
# Conditions: for IC50: curve of first compound; for viability, T/C: stronger effect = lower value
# Method in brief: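 Patient-derived tumor cells grown as complex spheroids with HUVEC endothelial cells and mesenchymal stem cells, treated with drug combinations. Concentrations descend in half-log steps from near clinical Cmax, or from 10 microM if Cmax unknown.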
# [1] = second compound 0.0316 µM, first compound 0.0316 µM
# [2] = second compound 0.0316 µM, first compound 0.1 µM
# [3] = second compound 0.1 µM, first compound 0.0316 µM
# [4] = second compound 0.1 µM, first compound 0.1 µM
# [5] = second compound 0.316 µM, first compound 0.0316 µM
# [6] = second compound 0.316 µM, first compound 0.1 µM
# [7] = second compound 1 µM, first compound 0.0316 µM
# [8] = second compound 1 µM, first compound 0.1 µM
# [9] = second compound 3.16 µM, first compound 0.0316 µM
# [10] = second compound 3.16 µM, first compound 0.1 µM
# [11] = second compound 10 µM, first compound 0.0316 µM
# [12] = second compound 10 µM, first compound 0.1 µM
# 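Further: spheroids exposed to the drugs for 7 days before readout.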
# 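Wherever viability, T/C is given: 100% = DMSO vehicle control wells.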
smiles,measurement,setting,value
Cn1ncnc1[C@H]1c2n[nH]c(=O)c3cc(F)cc(c23)N[C@@H]1c1ccc(F)cc1 + CN1CCN(c2cc(C(=O)Nc3cc4cc(-c5cnn(C)c5)ccc4cn3)ccn2)CC1,IC50,second compound 0.0316 µM,> 100 nM
same,IC50,second compound 0.1 µM,> 100 nM
same,IC50,second compound 0.316 µM,< 0.316 nM
same,IC50,second compound 1 µM,< 0.316 nM
same,IC50,second compound 3.16 µM,< 0.316 nM
same,IC50,second compound 10 µM,< 0.316 nM
same,"viability, T/C","second compound 0.0316 µM, first compound 0.000316 µM",112%
same,"viability, T/C","second compound 0.0316 µM, first compound 0.001 µM",106%
same,"viability, T/C","second compound 0.0316 µM, first compound 0.00316 µM",99.2%
same,"viability, T/C","second compound 0.0316 µM, first compound 0.01 µM",94.9%
same,"viability, T/C",[1],107%
same,"viability, T/C",[2],96.5%
same,"viability, T/C","second compound 0.1 µM, first compound 0.000316 µM",84.8%
same,"viability, T/C","second compound 0.1 µM, first compound 0.001 µM",88.5%
same,"viability, T/C","second compound 0.1 µM, first compound 0.00316 µM",85.1%
same,"viability, T/C","second compound 0.1 µM, first compound 0.01 µM",79.6%
same,"viability, T/C",[3],84.1%
same,"viability, T/C",[4],63.7%
same,"viability, T/C","second compound 0.316 µM, first compound 0.000316 µM",5.57%
same,"viability, T/C","second compound 0.316 µM, first compound 0.001 µM",7.18%
same,"viability, T/C","second compound 0.316 µM, first compound 0.00316 µM",5.28%
same,"viability, T/C","second compound 0.316 µM, first compound 0.01 µM",6.84%
same,"viability, T/C",[5],6.51%
same,"viability, T/C",[6],9.2%
same,"viability, T/C","second compound 1 µM, first compound 0.000316 µM",0.52%
same,"viability, T/C","second compound 1 µM, first compound 0.001 µM",0.5%
same,"viability, T/C","second compound 1 µM, first compound 0.00316 µM",0.55%
same,"viability, T/C","second compound 1 µM, first compound 0.01 µM",0.33%
same,"viability, T/C",[7],0.32%
same,"viability, T/C",[8],2.32%
same,"viability, T/C","second compound 3.16 µM, first compound 0.000316 µM",0.36%
same,"viability, T/C","second compound 3.16 µM, first compound 0.001 µM",0.46%
same,"viability, T/C","second compound 3.16 µM, first compound 0.00316 µM",1.75%
same,"viability, T/C","second compound 3.16 µM, first compound 0.01 µM",0.59%
same,"viability, T/C",[9],0.66%
same,"viability, T/C",[10],0.41%
same,"viability, T/C","second compound 10 µM, first compound 0.000316 µM",0.27%
same,"viability, T/C","second compound 10 µM, first compound 0.001 µM",1.75%
same,"viability, T/C","second compound 10 µM, first compound 0.00316 µM",0.83%
same,"viability, T/C","second compound 10 µM, first compound 0.01 µM",0.22%
same,"viability, T/C",[11],2.44%
same,"viability, T/C",[12],2.04%
C=CC(=O)N1CCN(c2nc(=O)n(-c3c(C)ccnc3C(C)C)c3nc(-c4c(O)cccc4F)c(F)cc23)C(C)C1 (centres undefined) + CN1CCN(c2cc(C(=O)Nc3cc4cc(-c5cnn(C)c5)ccc4cn3)ccn2)CC1,IC50,second compound 0.0316 µM,> 10000 nM
same,IC50,second compound 0.1 µM,> 10000 nM
same,IC50,second compound 0.316 µM,< 31.6 nM
same,IC50,second compound 1 µM,< 31.6 nM
same,IC50,second compound 3.16 µM,< 31.6 nM
same,IC50,second compound 10 µM,< 31.6 nM
same,"viability, T/C",[1],102%
same,"viability, T/C",[2],114%
same,"viability, T/C","second compound 0.0316 µM, first compound 0.316 µM",104%
same,"viability, T/C","second compound 0.0316 µM, first compound 1 µM",120%
same,"viability, T/C","second compound 0.0316 µM, first compound 3.16 µM",128%
same,"viability, T/C","second compound 0.0316 µM, first compound 10 µM",99.9%
same,"viability, T/C",[3],90.2%
same,"viability, T/C",[4],89.7%
same,"viability, T/C","second compound 0.1 µM, first compound 0.316 µM",89.2%
same,"viability, T/C","second compound 0.1 µM, first compound 1 µM",104%
same,"viability, T/C","second compound 0.1 µM, first compound 3.16 µM",101%
same,"viability, T/C","second compound 0.1 µM, first compound 10 µM",78.4%
same,"viability, T/C",[5],8.25%
same,"viability, T/C",[6],9.83%
same,"viability, T/C","second compound 0.316 µM, first compound 0.316 µM",8.72%
same,"viability, T/C","second compound 0.316 µM, first compound 1 µM",10.3%
same,"viability, T/C","second compound 0.316 µM, first compound 3.16 µM",7.48%
same,"viability, T/C","second compound 0.316 µM, first compound 10 µM",5.87%
same,"viability, T/C",[7],0.39%
same,"viability, T/C",[8],0.6%
same,"viability, T/C","second compound 1 µM, first compound 0.316 µM",1.15%
same,"viability, T/C","second compound 1 µM, first compound 1 µM",0.78%
same,"viability, T/C","second compound 1 µM, first compound 3.16 µM",1%
same,"viability, T/C","second compound 1 µM, first compound 10 µM",3.71%
same,"viability, T/C",[9],0.44%
same,"viability, T/C",[10],1.82%
same,"viability, T/C","second compound 3.16 µM, first compound 0.316 µM",0.7%
same,"viability, T/C","second compound 3.16 µM, first compound 1 µM",0.75%
same,"viability, T/C","second compound 3.16 µM, first compound 3.16 µM",0.83%
same,"viability, T/C","second compound 3.16 µM, first compound 10 µM",2.13%
same,"viability, T/C",[11],0.31%
same,"viability, T/C",[12],0.35%
same,"viability, T/C","second compound 10 µM, first compound 0.316 µM",0.36%
same,"viability, T/C","second compound 10 µM, first compound 1 µM",0.46%
same,"viability, T/C","second compound 10 µM, first compound 3.16 µM",2.05%
same,"viability, T/C","second compound 10 µM, first compound 10 µM",0.94%

# Reference: PubChem BioAssay AID2060615 (Molecular Pharmacology Branch, DTP, NCI, 2025)
